Results: ChEMBL document CHEMBL1149728, “11-oxoaerothionin: a cytotoxic antitumor bromotyrosine-derived alkaloid from the Caribbean marine sponge Aplysina lacunosa” (J Nat Prod, 1992)
In brackets after ≈: the same amount, converted by molar mass.

Key:
HCT-116 = test: Cytotoxicity against human HCT116 cells; format: functional, cell-based
Staphylococcus aureus = test: Antimicrobial activity against Staphylococcus aureus; format: functional
Escherichia coli = test: Antimicrobial activity against Escherichia coli; format: functional
MCF7 = test: Cytotoxicity against human MCF7 cells; format: functional, cell-based
SK-MEL-5 = test: Cytotoxicity against human SK-MEL-5 cells; format: functional, cell-based
Pseudomonas aeruginosa = test: Antimicrobial activity against Pseudomonas aeruginosa; format: functional
CCRF-CEM = test: Cytotoxicity against human CCRF-CEM cells; format: functional, cell-based

MIC (Staphylococcus aureus): 30 µg/mL (≈ 36.1 µM)
MIC (Escherichia coli): 10 µg/mL (≈ 12 µM)
MIC (Pseudomonas aeruginosa): 30 µg/mL (≈ 36.1 µM)
SMILES: COC1=C(Br)[C@@H](O)[C@]2(C=C1Br)CC(C(=O)NCCC(=O)CNC(=O)C1=NO[C@]3(C=C(Br)C(OC)=C(Br)[C@@H]3O)C1)=NO2
IC50 (HCT-116): 10 µg/mL (≈ 12 µM)
IC50 (MCF7): 20 µg/mL (≈ 24 µM)
IC50 (SK-MEL-5): 10 µg/mL (≈ 12 µM)
IC50 (CCRF-CEM): 3.5 µg/mL (≈ 4.21 µM)
